We go through one compound from patent US20220257552A1, “METHODS OF PRESCREENING AND TREATING BREAST CANCERS WITH SELECTIVE ANDROGEN RECEPTOR MODULATORS” (priority 2021, published 2022).

Data set [1] deals with GAR15-13 PDX. Description: GAR15-13 palbociclib-resistant PDX in NSG mice. Particulars: mouse, in vivo. The source says: (§1) Data were presented as mean values±s.e.m. […] Data represented the mean±s.e.m. of four replicate cell culture wells per condition. […] P values are indicated by gray asterisks, where ****P<0.0001 for all highlighted comparisons.
(§2) Tissue samples from an ER-positive, PR-negative, and HER2-negative (ER^+, PR^−, HER2^−) patient that progressed on (i.e., was resistant to) palbociclib were implanted into animal (NSG mice) models and grown as a patient-derived xenograft (PDX). […] This human tumor model also had amplification of the cyclin D1 (CCND1^Amp) gene which has been implicated as a driver of therapeutic resistance to CDKi. […] This is also observed in other models tested in vitro including a palbociclib resistant MCF-7 (MCF7 palbo^R) line (FIG. 44B).

A short description of data set [2]: Phase 1 multiple ascending dose study G100402. Format: in vivo, human. The source says: These include: 1. Protocol G100401, a Phase 1 single ascending dose study in 96 healthy, young, male volunteers; 2. Protocol G100402, a Phase 1 multiple ascending dose study in 50 healthy, young, male volunteers, and 23 elderly male volunteers with truncal obesity; 3. Protocol G100503, a Phase 1 single dose pharmacokinetic study to assess the effect of a dosage regimen that simulates a sustained release formulation to an immediate release formulation in 18 healthy, young male volunteers and 18 postmenopausal women; 4. Protocol G100506, a Phase 1 single dose pharmacokinetic study to assess the relative bioavailability of a 3 mg hard shell capsule formulation to be used during continued clinical development and to assess the effect of food on the pharmacokinetics of the 3 mg softgel formulation in 27 healthy, young, male volunteers; 5. Protocol 006, a Phase 1 single dose and multiple dose pharmacokinetic study in 24 postmenopausal, Japanese women; 6. Protocol G200501, a Phase 2 study in 60 postmenopausal women and 60 elderly men to assess lean body mass and physical function; 7. Protocol 003, a Phase 1b study in 44 postmenopausal women; 8. Protocol G200502, a Phase 2b study in 159 men and postmenopausal women with cancer to assess lean body mass and physical function; 9.
Both 10 mg and 30 mg daily doses were evaluated in Protocol G100402 for up to 14 days. […]

The subject of data set [3] is MCF7 palboR cells. Description: Proliferation of palbociclib resistant MCF-7 cells. The data set is classed as cell-based. The conditions noted are these: Formula IX 100 nM, Palb 125 nM.
From the text: as §1, §2

For data set [4], the system named is BR-0001 tumors. Kind of data set: Microarray and AR ChIP-Seq of BR-0001 tumors. The data set is classed as in vivo, mice. The method, then:
Chromatin Immunoprecipitation Assay (ChIP). Proteins were cross-linked by incubation with 1% formaldehyde (final concentration) at 37° C. for 10 min. Tumors were homogenized using a probe hand-held homogenizer. The cells were washed with 1×PBS twice, scraped in 1 mL of PBS containing protease inhibitors ([[…] each of aprotinin, leupeptin, antipain, benzamidine HCl, and pepstatin/mL], 0.2 mM phenylmethylsulfonyl fluoride, and 1 mM sodium vanadate), pelleted, and resuspended in SDS lysis buffer (1% SDS, 10 mM EDTA, 50 mM Tris-HCl [pH 8.1]).
After lysis on ice for 10 min, the cell extract was sonicated (Branson sonifier 250) in a cold room eight times for 10 s each at constant duty cycle, with an output of 3 and with incubation on ice after every sonication. The debris was pelleted at 13,000 rpm for 10 min at 4° C., and the supernatant was diluted 10-fold with ChIP dilution buffer (0.01% SDS, 1.1% Triton X-100, 1.2 mM EDTA, 16.7 mM Tris HCl [pH 8.1], 167 mM NaCl). The proteins were precleared with 50 μL of 1:1 protein A-Sepharose beads in TE. […]
In the gene expression study described above, RNA was isolated from the BR-0001 TNBC tumors and the expression of genes in the entire genome was measured by microarray (Affymetrix, ST2.0 array). […]

Regarding `C[C@](O)(COc1ccc(C#N)cc1)C(=O)Nc1ccc(C#N)c(C(F)(F)F)c1` [Formula IX, (S)—N-(4-Cyano-3-(trifluoromethyl)phenyl)-3-(4-cyanophenoxy)-2-hydroxy-2-methylpropanamide], the tumor growth response result in data set [1] is “responsive”. Further, in data set [2] (30 mg dose group), the “subjects with ALT increases above two times the ULN” value was “six”. The tolerability result in data set [2] (daily doses up to 30 mg, healthy male volunteers) was “well tolerated”. The anti-proliferative activity entry in data set [3] was “modest activity”. Moreover, in data set [4] (mouse, in vivo), the “AR-occupied promoters with the gene up-regulated” value is given as 20%. Besides, the “promoters to which AR was recruited” value in data set [4] (−5 kb to +1 kb) worked out at 176 promoters.
